Series [1] concerns P. berghei. Details: method as in PMID 10190183. To be noted: 250 mg/kg/day ref 6; cited from earlier work.
Series [2] relates to P. falciparum chloroquine-sensitive 3D7 strain. Nature of the series: Antiplasmodial assay, microdilution in vitro, flow cytometry. To be noted: for Antiplasmodial activity grade in words: P. falciparum 3D7; for IC50: Plasmodium falciparum. The format is cell-based, Plasmodium falciparum. On the procedure:
The strains were maintained in human erythrocytes in a gas mixture containing 5% O2, 5% CO2 and 90% N2 [24]. The culture was synchronised by 10% sorbitol treatment. The antimalarial activity was measured using the microdilution technique in vitro. […] Samples were dissolved in water, dimethylsulfoxide (DMSO) or methanol and serially diluted with the culture medium. To evaluate parasitemia, Giemsa staining and flow cytometric analysis were used. The concentration of the drug required to inhibit parasite growth was determined by comparing the fluorescence incorporated into the treated and untreated cultures (control). The concentration causing 50% inhibition (IC50) was determined from the drug concentration response curve.

Series [3] deals with Plasmodium 3D7 strain. Also noted: method as in PMID 14697777. Particulars: 3D7 strain ref 7; read-out: IC50 anti-Plasmodium 3D7 strain; cited from earlier work.
Series [4] has as its system HEK293T cells. As to the kind of experiment: Cytotoxicity assay, dihydroethidium staining, flow cytometry. The format is cell-based, human. To be noted: for Cytotoxicity judgement in words / IC50: HEK293T; for Cytotoxicity judgement in words: tested concentrations 0.001-100 µM; for IC50: Homo sapiens, HEK-293T; for Selectivity Index (SI) 48 h: HEK293T IC50 versus P. falciparum 3D7 IC50, 48 h. The protocol:
(§1) Human embryonic kidney (HEK293T) cells were cultured in surface area 75 cm^2 (Greiner Bio-One, Frickenhausen, Germany) vented tissue culture flasks at 37 °C in a humidified atmosphere containing 5% CO2 in Dulbecco’s modified essential medium (Gibco/Life Technologies, Grand Island, NY, USA) supplemented with 10% (v/v) foetal bovine serum, 100 U/mL penicillin and 100 µg/mL streptomycin. After 24 h, 50 µl of each drug was added with 0.5% DMSO or methanol to a single well. The cells were incubated with the test drugs for an additional 24 and 48 h and then harvested with trypsin, gently pelleted by centrifugation and re-suspended in PBS. The cells were stained with dihydroethidium solution (10 mg/mL in phosphate buffered saline), gently vortexed and incubated for 40 min at 37 °C in the dark. Ten thousand gated events were acquired for each sample (FACSCalibur BD and CellQuest software was used for analysis).

Assay in series [5]: as above
The format is cell-based, human. Particulars: human. On the procedure:
as §1

The test system of series [6] is P. falciparum chloroquine-sensitive Thai strain. Details: method as in PMID 17967541. To be noted: chloroquine-sensitive Thai strain ref 10; cited from earlier work.
Series [7] has as its system P. falciparum (3D7) isolated parasites. Nature of the series: Cytosolic calcium in isolated parasites loaded with Fluo4/AM (spectrofluorimetry). In kind it is cell-based, Plasmodium falciparum. Particulars: 2c 100 µM. On the procedure: Erythrocytes (RBCs) infected by P. falciparum (3D7) at the trophozoite stage were lysed with 10 mg/mL saponin (in phosphate-buffered saline) in the presence of 20 µg/mL protease inhibitors (pepstatin A, leupeptin, antipain and chymostatin) and benzamidine (0.5 mmol/L). Erythrocyte membranes were then removed through centrifugation (8700 rpm for 10 min at 4 °C). The parasites were washed three times in buffer M (116 mM NaCl, 5.4 mM KCl, 0.8 mM MgSO4, 5.5 mM D-glucose, 50 mM MOPS, pH 7.3) with CaCl2 (2 mM). The parasites were then re-suspended in the same buffer with Fluo4-AM (5 μM) probenecid (1.8 mM), an inhibitor of organic anion transport (to prevent dye sequestration and release), […] protease inhibitors (pepstatin A, leupeptin, antipain and chymostatin) and benzamidine (0.5 mmol/L) for 50 min at 37 °C. The parasite suspension was then washed three times with buffer M. Spectrofluorimetric measurements were performed in a Shimadzu RF-5301 PC instrument at 37 °C with isolated P. falciparum (3D7) parasites (10^8 cells mL^−1) incubated with MOPS buffer in a 1 mL cuvette. Compound 2c (100 μM) and THG (10 μM) were added during time course experiments, and excitation/emission wavelengths were adjusted to 505/530 nm for Fluo4-AM. Methanol (0.05%) was used as a control. […]

Setting [8] is: chloroquine-sensitive 3D7 strain, 48 h incubation, n = 3, read-out: IC50 (µM) P. falciparum 3D7.
[9] abbreviates: 24 h, read-out: IC50 (µM) HEK293T 24 h.
Setting [10] is: 48 h, read-out: IC50 (µM) HEK293T 48 h.
The mark [11] stands for this setting: chloroquine-sensitive 3D7 strain, 48 h incubation, values in nM, read-out: IC50 P. falciparum 3D7.

Entries after “also recorded” stand apart in the source; their conditions may differ. Like-named read-outs stand apart in the source and are kept apart here. Where only a bound is given, the exact number is not on record here.

Take `C=C(C)[C@@H]1CC[C@]2(C(=O)O)CC[C@]3(C)[C@H](CC[C@@H]4[C@@]5(C)CC[C@H](O)C(C)(C)[C@@H]5CC[C@]43C)[C@@H]12` [compound 1, Betulinic acid]: the “Efficacy in murine malarial model of P. berghei” value in series [1] is reported as “ineffective”. In series [2], the “Antiplasmodial activity grade in words” value was “moderate activity”. Besides, the 50% inhibitory concentration (IC50) in series [2] (setting [8]) is 18 µM; in series [3], 13.9 µM.
On to `CC(=O)O[C@H]1CC[C@@]2(C)C(CC[C@]3(C)C2CC=C2C4[C@@H](C)[C@H](C)CC[C@]4(C(=O)NCCCN4CCN(CCCNC(=O)OC(C)(C)C)CC4)CC[C@]23C)C1(C)C` (some centres unmarked) [2b], for which, in series [2] (setting [8]), the IC50 was determined as 15 µM.
As to `C=C(C)[C@@H]1CC[C@]2(C(=O)O)CC[C@]3(C)[C@H](CC[C@@H]4[C@@]5(C)CC[C@H](OC(C)=O)C(C)(C)[C@@H]5CC[C@]43C)[C@@H]12` [1a, 3-O-Acetylbetulinic acid], the “Antiplasmodial activity grade in words” value in series [2] was “good activity”. For the same compound, the half-inhibitory concentration (IC50) in series [2] (setting [8]) is 4 µM; in series [4] (setting [9]), greater than 100 µM; in series [4] (setting [10]) it was greater than 100 µM. Further, the “Cytotoxicity judgement in words” value in series [4] is given as “not toxic; also recorded: not cytotoxic at the tested concentrations”.
For the compound `C[C@H]1[C@H](C)CC[C@]2(C(=O)O)CC[C@]3(C)C(=CC[C@@H]4[C@@]5(C)CC[C@H](O)C(C)(C)[C@@H]5CC[C@]43C)[C@H]12` [compound 2, Ursolic acid], in series [2], the “Antiplasmodial activity grade in words” value was “inactive”. Moreover, in series [2] (setting [8]), the IC50 came to 36 µM.
With `CC(=O)O[C@H]1CC[C@@]2(C)C(CC[C@]3(C)C2CC=C2C4[C@@H](C)[C@H](C)CC[C@]4(C(=O)O)CC[C@]23C)C1(C)C` (some centres unmarked) [2a], the IC50 in series [2] (setting [8]) was determined as 14 µM.
For `C=C(C)[C@@H]1CC[C@]2(C(=O)NCCCN3CCN(CCCNC(=O)OC(C)(C)C)CC3)CC[C@]3(C)C(CCC4[C@@]5(C)CC[C@H](OC(C)=O)C(C)(C)C5CC[C@]43C)C12` (some centres unmarked) [1b, N-{3-[4-(3-Aminopropyl)piperazinopropyl]terbutylcarbamate}-3-acetylbetulinamide], the melting point came out at 129 °C. Further, the “Antiplasmodial activity grade in words” value in series [2] is “good activity”. Besides, the IC50 in series [2] (setting [8]) turned out to be 5 µM. In addition, in series [4], the “Selectivity Index (SI) 48 h” value is 0.8. Further, in series [4] (setting [9]), the IC50 turned out to be 4 µM. In addition, the IC50 in series [4] (setting [10]) amounted to 4 µM. This compound also showed an IC50 in series [5] of 4 µM.
In the case of `CC(=O)OC1CCC2(C)C(CCC3(C)C2CC=C2C4C(C)C(C)CCC4(C(=O)NCCCN4CCN(CCCN)CC4)CCC23C)C1(C)C` (centres unmarked) [2c], the “Antiplasmodial activity grade in words” value in series [2] is reported as “excellent activity”. For the same compound, the IC50 is 0.175 µM in series [2] (setting [8]); 0.175 to 0.22 µM in series [2] (setting [11]); 4 µM in series [4] (setting [9]); 4 µM in series [4] (setting [10]); 4 µM in series [5] (HEK293T cells, HEK293T, time not stated, read-out: IC50 cytotoxicity HEK293T); 0.167 µM in series [6]. The “Selectivity Index (SI) 48 h” value in series [4] is 23. The “Cytotoxicity judgement in words” value in series [4] is listed as “non-toxic”. In addition, the “Effect on parasite calcium homeostasis, in words” value in series [7] (followed by THG 10 µM) is given as “can modulate parasite calcium homeostasis; also recorded: led to an increase in intracellular ion concentrations in P. falciparum”. Also, the “Ca2+ concentration, Fluo4/AM fluorescence after addition of compound” value in series [7] (isolated parasites 10^8 cells mL-1, mean ± SEM, n = 9, P = 0.0004 vs methanol 0.05%) turned out to be 104.9 a.u.
Turning to `CCN(CC)CCCC(C)Nc1ccnc2cc(Cl)ccc12` (centres unmarked) [chloroquine, reference compound], the IC50 in series [2] (3D7, 48 h, read-out: IC50 P. falciparum 3D7) was 0.029 µM.
As to `C=C(C)[C@@H]1CC[C@]2(C(=O)OC)CC[C@]3(C)[C@H](CC[C@@H]4[C@@]5(C)CC[C@H](O)C(C)(C)[C@@H]5CC[C@]43C)[C@@H]12` [methyl betulinate, reference compound], the IC50 in series [3] is 7 µM.
The compound `C=C(C)[C@@H]1CC[C@]2(C(=O)NCCCN3CCN(CCCN)CC3)CC[C@]3(C)C(CCC4[C@@]5(C)CC[C@H](OC(C)=O)C(C)(C)C5CC[C@]43C)C12` (some centres unmarked) [1c, N-{3-[4-(3-aminopropyl)piperazinyl]propyl}-3-acetylbetulinamide] came in with a melting point of 120 °C. Further, in series [2], the “Antiplasmodial activity grade in words” value is “excellent activity”. The IC50 in series [2] (setting [8]) is 0.22 µM. For the same compound, in series [2] (setting [11]), the half-maximal inhibitory concentration (IC50) is 0.175 to 0.22 µM. Also, in series [4], the “Selectivity Index (SI) 48 h” value amounted to 18. Moreover, the half-inhibitory concentration (IC50) in series [4] (setting [9]) came out at 4 µM. Further, the IC50 in series [4] (setting [10]) came out at 4 µM. In series [5], this compound had an IC50 of 4 µM.

These data come from article PMC6268073, “Synthesis and Antiplasmodial Activity of Betulinic Acid and Ursolic Acid Analogues” (Molecules, 2012).
